The values that follow come from patent publication US10533010B2, “Substituted indole Mcl-1 inhibitors” (Vanderbilt University, priority 2014, dated 2020).

This experiment deals with recombinant Mcl-1 (residues 172-327) (Homo sapiens (Human), UniProt Q07820). Briefly: Fluorescence polarization anisotropy competition assay (FITC-Bak or FITC-Bim BH3 peptide) with Mcl-1. The format is binding. The conditions noted are these: Table 2; Ki bins given in nM; FITC-Bak or FITC-Bim peptide competition; Ki converted from IC50; read-out: Ki for Inhibition of Mcl-1. (In general: Fluorescence polarisation rises when a labelled molecule tumbles more slowly, as on binding a larger partner.)
recombinant Mcl-1 (residues 172-327), sequence (Q07820 172-327): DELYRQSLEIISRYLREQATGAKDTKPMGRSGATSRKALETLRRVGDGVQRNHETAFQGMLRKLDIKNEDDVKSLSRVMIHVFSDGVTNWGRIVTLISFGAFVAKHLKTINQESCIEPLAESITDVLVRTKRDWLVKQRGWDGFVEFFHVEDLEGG

As a reminder, the Ki is a dissociation constant, usually derived from enzyme kinetics or from competition with a known ligand. As to `Cc1cc(OCCCc2c3n(c4c(-c5c(C)nn(C)c5C)c(Cl)ccc24)CCCN(Cc2cc(OCCC(C)C)cc(C(=O)O)c2)C3=O)cc(C)c1Cl` [I-300, 3-((8-chloro-11-(3-(4-chloro-3,5-dimethylphenoxy)propyl)-1-oxo-7-(1,3,5-trimethyl-1H-pyrazol-4-yl)-4,5-dihydro-1H-[1,4]diazepino[1,2-a]indol-2(3H)-yl)methyl)-5-(isopentyloxy)benzoic acid], the Ki is less than 50 nM.

Take `Cc1cc(OCCCc2c3n(c4c(-c5c(C)nn(C)c5C)c(Cl)ccc24)CCCN(Cc2cc(OCCCC(C)C)cc(C(=O)O)c2)C3=O)cc(C)c1Cl` [I-301, 3-((8-chloro-11-(3-(4-chloro-3,5-dimethylphenoxy)propyl)-1-oxo-7-(1,3,5-trimethyl-1H-pyrazol-4-yl)-4,5-dihydro-1H-[1,4]diazepino[1,2-a]indol-2(3H)-yl)methyl)-5-((4-methylpentyl)oxy)benzoic acid]: the Ki is less than 50 nM.

Consider `Cc1cc(OCCCc2c3n(c4c(-c5c(C)nn(C)c5C)c(Cl)ccc24)CCCN(Cc2cc(C(=O)O)cc(OCCC(C)C)n2)C3=O)cc(C)c1Cl` [I-302, 2-((8-chloro-11-(3-(4-chloro-3,5-dimethylphenoxy)propyl)-1-oxo-7-(1,3,5-trimethyl-1H-pyrazol-4-yl)-4,5-dihydro-1H-[1,4]diazepino[1,2-a]indol-2(3H)-yl)methyl)-6-(isopentyloxy)isonicotinic acid], for which the inhibition constant Ki was less than 50 nM.

Regarding `Cc1cc(OCCCc2c3n(c4c(-c5c(C)nn(C)c5C)c(Cl)ccc24)CCCN(Cc2cc(C(=O)O)cc(OCCCC(C)C)n2)C3=O)cc(C)c1Cl` [I-303, 2-((8-chloro-11-(3-(4-chloro-3,5-dimethylphenoxy)propyl)-1-oxo-7-(1,3,5-trimethyl-1H-pyrazol-4-yl)-4,5-dihydro-1H-[1,4]diazepino[1,2-a]indol-2(3H)-yl)methyl)-6-((4-methylpentyl)oxy)isonicotinic acid], the Ki was less than 50 nM.

`Cc1cc(OCCCc2c3n(c4c(-c5c(C)nn(C)c5C)c(Cl)ccc24)CCCN(CC(=O)O)C3=O)cc(C)c1Cl` [I-304, 2-(8-chloro-11-(3-(4-chloro-3,5-dimethylphenoxy)propyl)-1-oxo-7-(1,3,5-trimethyl-1H-pyrazol-4-yl)-4,5-dihydro-1H-[1,4]diazepino[1,2-a]indol-2(3H)-yl)acetic acid]: the Ki is less than 50 nM.

As to `Cc1cc(OCCCc2c3n(c4c(-c5c(C)nn(C)c5C)c(Cl)ccc24)CCCN(CC(=O)N[C@@H](Cc2ccccc2)C(=O)O)C3=O)cc(C)c1Cl` [I-305, (2-(8-chloro-11-(3-(4-chloro-3,5-dimethylphenoxy)propyl)-1-oxo-7-(1,3,5-trimethyl-1H-pyrazol-4-yl)-4,5-dihydro-1H-[1,4]diazepino[1,2-a]indol-2(3H)-yl)acetyl)-L-phenylalanine], the Ki is less than 50 nM.

Turning to `Cc1cc(OCCCc2c3n(c4c(-c5c(C)nn(C)c5C)c(Cl)ccc24)CCCN(Cc2cc(C(=O)O)cc(-c4ccc(O)cc4)c2)C3=O)cc(C)c1Cl` [I-306, 5-((8-chloro-1-(3-(4-chloro-3,5-dimethylphenoxy)propyl)-1-oxo-7-(1,3,5-trimethyl-1H-pyrazol-4-yl)-4,5-dihydro-1H-[1,4]diazepino[1,2-a]indol-2(3H)-yl)methyl)-4′-hydroxy-[1,1′-biphenyl]-3-carboxylic acid], the Ki was less than 50 nM.

Consider `Cc1cc(OCCCc2c3n(c4c(-c5c(C)nn(C)c5C)c(Cl)ccc24)CCCN(Cc2cc(CCNC(=O)CC(C)C)cc(C(=O)O)c2)C3=O)cc(C)c1Cl` [I-307, 3-((8-chloro-11-(3-(4-chloro-3,5-dimethylphenoxy)propyl)-1-oxo-7-(1,3,5-trimethyl-1H-pyrazol-4-yl)-4,5-dihydro-1H-[1,4]diazepino[1,2-a]indol-2(3H)-yl)methyl)-5-(2-(3-methylbutanamido)ethyl)benzoic acid], for which the Ki was less than 50 nM.
